Measured values published in patent US8557796B2, “Substituted 1-oxa-2,8-diaza-spiro [4,5] dec-2-ene derivatives and related treatment methods” (Gruenenthal GmbH, priority 2001, dated 2013).

Molecular target: T1, 5HT-uptake (Rattus norvegicus, UniProt P31652)
T1 construct: synaptosomes from rat brain regions were freshly isolated; from tissue; host or cells: P2 synaptosome fraction from rat brain regions
Assay: Serotonin uptake inhibition (5HT uptake) in synaptosomes
Format: biochemical
Settings: rat brain synaptosomes

T1 sequence (P31652 whole entry): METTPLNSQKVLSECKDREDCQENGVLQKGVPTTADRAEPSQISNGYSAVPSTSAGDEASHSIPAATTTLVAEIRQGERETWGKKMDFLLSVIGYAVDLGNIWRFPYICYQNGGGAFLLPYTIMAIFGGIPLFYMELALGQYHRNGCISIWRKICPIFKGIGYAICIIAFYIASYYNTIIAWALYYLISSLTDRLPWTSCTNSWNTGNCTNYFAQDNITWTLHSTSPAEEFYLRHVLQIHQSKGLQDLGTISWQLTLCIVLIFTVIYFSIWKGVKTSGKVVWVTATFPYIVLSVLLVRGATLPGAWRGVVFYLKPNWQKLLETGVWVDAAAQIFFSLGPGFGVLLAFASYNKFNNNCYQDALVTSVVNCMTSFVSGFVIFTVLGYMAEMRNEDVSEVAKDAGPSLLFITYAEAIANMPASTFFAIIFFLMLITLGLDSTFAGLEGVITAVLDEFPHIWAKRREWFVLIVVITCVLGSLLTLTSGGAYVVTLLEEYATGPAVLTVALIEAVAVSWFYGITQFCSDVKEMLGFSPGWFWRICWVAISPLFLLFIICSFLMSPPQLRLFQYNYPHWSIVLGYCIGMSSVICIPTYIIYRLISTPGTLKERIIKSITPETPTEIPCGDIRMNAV

| inhibition at 10 µM | Structure (SMILES) | 5HT-uptake, 10 μM, % inhibition |
| --- | --- | --- |
| 49% | CCOc1ccccc1CNC(=O)C1=NOC2(CCN(S(=O)(=O)Cc3ccccc3)CC2)C1 [Example 51, 8-phenylmethanesulphonyl-1-oxa-2,8-diaza-spiro[4,5]dec-2-ene-3-carboxylic acid 2-ethoxy-benzylamide] | – |
| 57% | O=C(NCC1CC1)C1=NOC2(CCN(S(=O)(=O)c3cccc(C(F)(F)F)c3)CC2)C1 [Example 94, 8-(3-trifluoromethyl-benzenesulphonyl)-1-oxa-2,8-diaza-spiro[4,5]dec-2-ene-3 carboxylic acid cyclopropylmethyl-amide] | – |
| 67% | COc1ccc(S(=O)(=O)N2CCC3(CC2)CC(C(=O)NC(CC(C)C)C(=O)OC(C)(C)C)=NO3)cc1 (centres unmarked) [Example 147, 2-{[8-(4-methoxy-benzenesulphonyl)-1-oxa-2,8-diaza-spiro[4,5]dec-2-ene-3-carbonyl]-amino}-4-methyl-pentanoic acid tert-butyl ester] | – |
| 40% | CCOC(=O)CCNC(=O)C1=NOC2(CCN(S(=O)(=O)CC34CCC(CC3=O)C4(C)C)CC2)C1 (centres unmarked) [Example 66, 3-{[8-(7,7-dimethyl-2-oxo-bicyclo[2.2.1]hept-1-ylmethane-sulphonyl)-1-oxa-2,8-diaza-spiro[4,5]dec-2-ene-3-carbonyl]-amino]-propionic acid ethyl ester] | – |
| 41% | CN(C)S(=O)(=O)N1CCC2(CC1)CC(C(=O)NCc1ccc(F)cc1F)=NO2 [Example 77, 8-dimethylsulphamoyl-1-oxa-2,8-diaza-spiro[4,5]dec-2-ene-3-carboxylic acid 2,4-difluorobenzylamide] | – |
| – | C=CCOC(=O)C(CC(=O)OC(C)(C)C)NC(=O)C1=NOC2(CCN(S(=O)(=O)c3cc(Cl)ccc3Cl)CC2)C1 (centres unmarked) [Example 53] | 53% |
| – | N#CCCN(CC1CCCO1)C(=O)C1=NOC2(CCN(S(=O)(=O)c3cc(Cl)ccc3Cl)CC2)C1 (centres unmarked) [Example 100] | 43% |
| 42% | CCCS(=O)(=O)N1CCC2(CC1)CC(C(=O)NCC(C)C)=NO2 [Example 82, 8-(propane-1-sulphonyl)-1-oxa-2,8-diaza-spiro[4,5]dec-2-ene-3-carboxylic acid isobutyl-amide] | – |
| 40% | O=C(C1=NOC2(CCN(S(=O)(=O)Cc3ccccc3)CC2)C1)N1CCN(c2ccc(Cl)cc2)CC1 [Example 46, [4-(4-chloro-phenyl)-piperazin-1-yl]-(8-phenylmethane-sulphonyl-1-oxa-2,8-diaza-spiro[4,5]dec-2-en-3-yl)-methanone] | – |
| 46% | CCOC(=O)CCNC(=O)C1=NOC2(CCN(C(=O)c3cc(F)cc(F)c3)CC2)C1 [Example 81, 3-{[8-(3,5-difluoro-benzoyl)-1-oxa-2,8-diaza-spiro[4,5]dec-2-ene-3-carbonyl]-amino}-propionic acid ethyl ester] | – |
| 70% | Cc1ccc(S(=O)(=O)NC(Cc2ccccc2)C(=O)N2CCC3(CC2)CC(C(=O)NCCC#N)=NO3)cc1 (centres unmarked) [Example 41, 8-[3-phenyl-2-(toluene-4-sulphonylamino)-propionyl]-1-oxa-2,8-diaza-spiro[4,5]dec-2-ene-3-carboxylic acid (2-cyano-ethyl)-amide] | – |
| 52% | O=C(NCC1CC1)C1=NOC2(CCN(C(=O)c3cccc(Cl)c3Cl)CC2)C1 [Example 157, 8-(2,3-dichloro-benzoyl)-1-oxa-2,8-diaza-spiro[4,5]dec-2-ene-3-carboxylic acid cyclopropylmethyl-amide] | – |
| 43% | O=C(Nc1ccc2ccccc2c1)C1=NOC2(CCN(S(=O)(=O)c3ccc(OC(F)(F)F)cc3)CC2)C1 [Example 54, 8-(4-trifluoromethoxy-benzenesulphonyl)-1-oxa-2,8-diaza-spiro[4,5]dec-2-ene-3-carboxylic acid naphthalen-2-ylamide] | – |
| – | CCCC(=O)N1CCC2(CC1)CC(C(=O)NC1CCN(C(=O)OCC)CC1)=NO2 [Example 74, 4-[(8-butyryl-1-oxa-2,8-diaza-spiro[4,5]dec-2-ene-3-carbonyl)-amino]-piperidine-l-carboxylic acid ethyl ester] | 43% |
| 65% | O=C(NCCc1ccc(Cl)cc1)C1=NOC2(CCN(S(=O)(=O)c3cccs3)CC2)C1 [Example 60, 8-(thiophene-2-sulphonyl)-1-oxa-2,8-diaza-spiro[4,5]dec-2-ene-3-carboxylic acid [2-(4-chlorophenyl)-ethyl]-amide] | – |
| – | COc1ccc(OC)c(CN(Cc2ccco2)C(=O)C2=NOC3(CCN(S(=O)(=O)c4ccc(F)cc4)CC3)C2)c1 [Example 160] | 50% |
| – | O=C(C1=NOC2(CCN(S(=O)(=O)Cc3ccccc3)CC2)C1)N1CCN(Cc2ccc3ccccc3c2)CC1 [Example 6, (4-naphthalen-2-ylmethyl-piperazin-l-yl)-(8-phenylmethane-sulphonyl-1-oxa-2,8 diaza-spiro[4,5]dec-2-en-3-yl)-methanone] | 54% |
| – | CCOC(=O)CCNC(=O)C1=NOC2(CCN(C(=O)c3c(Cl)ccc(C)c3F)CC2)C1 [Example 148] | 47% |
| 46% | CC(=O)NCCNC(=O)C1=NOC2(CCN(S(=O)(=O)c3cc(F)ccc3C)CC2)C1 [Example 17, 8-(5-fluoro-2-methyl-benzenesulphonyl)-1-oxa-2,8-diaza-spiro[4,5]dec-2-ene-3 carboxylic acid (2-acetylamino-ethyl)-amide] | – |
| – | CCOC(=O)N1CCC(NC(=O)C2=NOC3(CCN(C(=O)c4ccc(Br)cc4)CC3)C2)CC1 [Example 62, 4-{[8-(4-bromo-benzoyl)-1-oxa-2,8-diaza-spiro[4,5]dec-2-ene-3-carbonyl]-amino)-piperidine-l-carboxylic acid ethyl ester] | 73% |
| 51% | Cc1ccc(S(=O)(=O)N2CCC3(CC2)CC(C(=O)N2CCN(C(=O)Cc4ccccc4)CC2)=NO3)cc1 [Example 25, 2-phenyl-1-{4-[8-(toluene-4-sulphonyl)-1-oxa-2,8-diaza-spiro[4,5]dec-2-ene-3 carbonyl]-piperazin-1-yl)-ethanone] | – |
| – | CCSCCNC(=O)C1=NOC2(CCN(C(=O)c3ccc(Br)cc3)CC2)C1 [Example 154] | 48% |
| – | CCOC(=O)CCNC(=O)C1=NOC2(CCN(S(=O)(=O)c3cc([N+](=O)[O-])ccc3C)CC2)C1 [Example 95] | 54% |
| 40% | COc1cccc(CNC(=O)C2=NOC3(CCN(S(=O)(=O)c4ccc(OC(F)(F)F)cc4)CC3)C2)c1 [Example 162, 8-(4-trifluoromethoxy-benzenesulphonyl)-1-oxa-2,8-diaza-spiro[4,5]dec-2-ene-3-carboxylic acid 3-methoxy-benzylamide] | – |
| – | COc1cc(OC)cc(N2CCN(C(=O)C3=NOC4(CCN(S(=O)(=O)c5ccc(Cl)s5)CC4)C3)CC2)c1 [Example 71, [8-(5-chloro-thiophene-2-sulphonyl)-1-oxa-2,8-diaza-spiro[4,5]dec-2-en-3-yl]-[4-(3,5-dimethoxy-phenyl)-piperazin-l-yl]-methanone] | 43% |
| 52% | COc1ccc(CNC(=O)C2=NOC3(CCN(S(=O)(=O)c4cc(Cl)ccc4Cl)CC3)C2)cc1OC [Example 68, 8-(2,5-dichloro-benzenesulphonyl)-1-oxa-2,8-diaza-spiro[4,5]dec-2-ene-3-carboxylic acid 3,4-dimethoxy-benzylamide] | – |

| Structure (SMILES) | inhibition at 10 µM | 5HT-uptake, 10 μM, % inhibition |
| --- | --- | --- |
| O=C(NCc1cccc(F)c1)C1=NOC2(CCN(S(=O)(=O)c3cccs3)CC2)C1 [Example 24, 8-(thiophene-2-sulphonyl)-1-oxa-2,8-diaza-spiro[4,5]dec-2-ene-3-carboxylic acid 3-fluorobenzylamide] | 40% | – |
| O=C(C1=NOC2(CCN(S(=O)(=O)c3cccc(C(F)(F)F)c3)CC2)C1)N1CCN(CCCc2ccccc2)CC1 [Example 83, [4-(3-phenyl-propyl)-piperazin-1-yl]-[8-(3-trifluoromethyl-benzenesulphonyl)-1-oxa-2,8-diaza-spiro[4,5]dec-2-en-3-yl]-methanone] | 52% | – |
| O=C(C1=NOC2(CCN(S(=O)(=O)c3ccc(Cl)s3)CC2)C1)N1CCN(c2ccc(F)cc2)CC1 [Example 91, [8-(5-chloro-thiophene-2-sulphonyl)-1-oxa-2,8-diaza-spiro[4,5]dec-2-en-3-yl]-[4-(4-fluorophenyl)-piperazin-1-yl]-methanone] | 45% | – |
| CN1CCCC1CCNC(=O)C1=NOC2(CCN(S(=O)(=O)c3ccc(Cl)s3)CC2)C1 (centres unmarked) [Example 61, 8-(5-chloro-thiophene-2-sulphonyl)-1-oxa-2,8-diaza-spiro[4,5]dec-2-ene-3-carboxylic acid [2-(1-methyl-pyrrolidin-2-yl)-ethyl]-amide] | 72% | – |
| CCc1ccc(C(=O)N2CCC3(CC2)CC(C(=O)NCc2cccs2)=NO3)cc1 [Example 52, 8-(4-ethyl-benzoyl)-1-oxa-2,8-diaza-spiro[4,5]dec-2-ene-3-carboxylic acid (thiophen-2-ylmethyl)-amide] | 60% | – |
| COCCOCC(=O)N1CCC2(CC1)CC(C(=O)NCc1ccccc1)=NO2 [Example 87, 8-[2-(2-methoxy-ethoxy)-acetyl]-1-oxa-2,8-diaza-spiro[4,5]dec-2-ene-3-carboxylic acid benzylamide] | 40% | – |
| O=C(NC1CCN(Cc2ccc(C(F)(F)F)cc2)C1)C1=NOC2(CCN(S(=O)(=O)c3cccs3)CC2)C1 (centres unmarked) [Example 26, 8-(thiophene-2-sulphonyl)-1-oxa-2,8-diaza-spiro[4,5]dec-2-ene-3-carboxylic acid [1-(4-trifluoromethyl-benzyl)-pyrrolidin-3-yl]-amide] | 65% | – |
| Cc1ccc(S(=O)(=O)N2CCC3(CC2)CC(C(=O)NCc2cc(Cl)cc(Cl)c2)=NO3)cc1 [Example 63, 8-(toluene-4-sulphonyl)-1-oxa-2,8-diaza-spiro[4,5]dec-2-ene-3-carboxylic acid 3,5-dichlorobenzylamide] | 55% | – |
| N#CCCN(Cc1cccnc1)C(=O)C1=NOC2(CCN(S(=O)(=O)c3cc(Cl)ccc3Cl)CC2)C1 [Example 99, 8-(2,5-dichloro-benzenesulphonyl)-1-oxa-2,8-diaza-spiro[4,5]dec-2-ene-3-carboxylic acid (2-cyano-ethyl)-pyridin-3-ylmethyl-amide] | 44% | – |
